The values below come from PubChem BioAssay AID1259407 (Chemical Carcinogenesis Research Information System (CCRIS), 2018).

This data set concerns CCRIS mutagenicity, Ames/micronucleus/aberration tests. Put plainly: CCRIS mutagenicity studies. An excerpt: The CCRIS database contains chemical records with carcinogenicity, mutagenicity, tumor promotion, and tumor inhibition test results. It was developed by the National Cancer Institute (NCI). Data are derived from studies cited in primary journals, current awareness tools, NCI reports, and other sources. Test results have been reviewed by experts in carcinogenesis and mutagenesis.
CCRIS provides historical information from the years 1985 - 2011. It is no longer updated.
This is an archive assay for CCRIS mutagenicity studies.

Setting [1] is: Test System: AMES SALMONELLA TYPHIMURIUM, Strain/Indicator: TA98, Metabolic Activation: NONE, Method: STANDARD PLATE.
Where [2] appears, read: Test System: AMES SALMONELLA TYPHIMURIUM, Strain/Indicator: TA100, Metabolic Activation: NONE, Method: STANDARD PLATE.

Active and inactive are the calls of the source. No rule for the calls is given here.

Consider `CC[n+]1c(-c2ccccc2)c2cc(N)ccc2c2ccc(N)cc21`, for which the mutagenic call is “inactive; negative” (End Point: IN VITRO MICRONUCLEUS, Test System: CHO CELLS, Metabolic Activation: RAT, LIVER, S-9, AROCLOR 1254); “inactive; negative” (Test System: AMES SALMONELLA TYPHIMURIUM, Strain/Indicator: TA97A, Metabolic Activation: NONE, Method: STANDARD PLATE); “active; positive” (Test System: AMES SALMONELLA TYPHIMURIUM, Strain/Indicator: TA97A, Metabolic Activation: RAT LIVER S-9, AROCLOR 1254, Method: STANDARD PLATE); “inactive; negative” under setting [1]; “active; positive” (Test System: AMES SALMONELLA TYPHIMURIUM, Strain/Indicator: TA98, Metabolic Activation: RAT LIVER S-9, AROCLOR 1254, Method: STANDARD PLATE); “active; positive” (Test System: AMES SALMONELLA TYPHIMURIUM, Strain/Indicator: TA98, Metabolic Activation: RAT, LIVER, S-9, AROCLOR 1254, HAMSTER, LIVER, S-9, AROCLOR 1254, Method: STANDARD PLATE). Moreover, the mutagenic call by setting is: (Test System: AMES SALMONELLA TYPHIMURIUM, Strain/Indicator: TA98, Metabolic Activation: RAT, LIVER, S-9, AROCLOR 1254, Method: STANDARD PLATE) “active; positive”; (Test System: AMES SALMONELLA TYPHIMURIUM, Strain/Indicator: TA98, Metabolic Activation: RAT, LIVER, S-9, AROCLOR 1254 OR PHENOBARBITOL, Method: STANDARD PLATE) “active; positive”; under setting [2], “inactive; negative”; (Test System: AMES SALMONELLA TYPHIMURIUM, Strain/Indicator: TA100, Metabolic Activation: RAT LIVER S-9, AROCLOR 1254, Method: STANDARD PLATE) “inactive; negative”; (Test System: AMES SALMONELLA TYPHIMURIUM, Strain/Indicator: TA100, Metabolic Activation: RAT, LIVER, S-9, AROCLOR 1254 OR PHENOBARBITOL, Method: STANDARD PLATE) “inactive; negative”; (Test System: AMES SALMONELLA TYPHIMURIUM, Strain/Indicator: TA102, Metabolic Activation: NONE, Method: STANDARD PLATE) “inactive; negative”. The mutagenic call is, setting by setting: (Test System: AMES SALMONELLA TYPHIMURIUM, Strain/Indicator: TA102, Metabolic Activation: RAT LIVER S-9, AROCLOR 1254, Method: STANDARD PLATE) “active; positive”; (Test System: AMES SALMONELLA TYPHIMURIUM, Strain/Indicator: TA1535, Metabolic Activation: NONE, Method: STANDARD PLATE) “inactive; negative”; (Test System: AMES SALMONELLA TYPHIMURIUM, Strain/Indicator: TA1535, Metabolic Activation: RAT LIVER S-9, AROCLOR 1254, Method: STANDARD PLATE) “inactive; negative”; (Test System: AMES SALMONELLA TYPHIMURIUM, Strain/Indicator: TA1535, Metabolic Activation: RAT, LIVER, S-9, AROCLOR 1254 OR PHENOBARBITOL, Method: STANDARD PLATE) “inactive; negative”; (Test System: AMES SALMONELLA TYPHIMURIUM, Strain/Indicator: TA1537, Metabolic Activation: NONE, Method: STANDARD PLATE) “inactive; negative”; (Test System: AMES SALMONELLA TYPHIMURIUM, Strain/Indicator: TA1537, Metabolic Activation: RAT LIVER S-9, AROCLOR 1254, Method: STANDARD PLATE) “active; positive”. The mutagenic call was “active; positive” (Test System: AMES SALMONELLA TYPHIMURIUM, Strain/Indicator: TA1537, Metabolic Activation: RAT, LIVER, S-9, AROCLOR 1254, HAMSTER, LIVER, S-9, AROCLOR 1254 (2.5-20%), Method: STANDARD PLATE); “active; positive” (Test System: AMES SALMONELLA TYPHIMURIUM, Strain/Indicator: TA1537, Metabolic Activation: RAT, LIVER, S-9, AROCLOR 1254, HAMSTER, LIVER, S-9, AROCLOR 1254, Method: STANDARD PLATE); “active; positive” (Test System: AMES SALMONELLA TYPHIMURIUM, Strain/Indicator: TA1537, Metabolic Activation: RAT, LIVER, S-9, AROCLOR 1254 OR PHENOBARBITOL, Method: STANDARD PLATE); “inactive; negative” (Test System: AMES SALMONELLA TYPHIMURIUM, Strain/Indicator: TA1538, Metabolic Activation: NONE, Method: STANDARD PLATE); “active; positive” (Test System: AMES SALMONELLA TYPHIMURIUM, Strain/Indicator: TA1538, Metabolic Activation: RAT LIVER S-9, AROCLOR 1254, Method: STANDARD PLATE); “active; positive” (Test System: AMES SALMONELLA TYPHIMURIUM, Strain/Indicator: TA1538, Metabolic Activation: RAT, LIVER, S-9, AROCLOR 1254, HAMSTER, LIVER, S-9, AROCLOR 1254, Method: STANDARD PLATE). For the same molecule, the mutagenic call is “active; positive” (Test System: AMES SALMONELLA TYPHIMURIUM, Strain/Indicator: TA1538, Metabolic Activation: RAT, LIVER, S-9, AROCLOR 1254, Method: STANDARD PLATE); “active; positive” (Test System: AMES SALMONELLA TYPHIMURIUM, Strain/Indicator: TA1538, Metabolic Activation: RAT, LIVER, S-9, AROCLOR 1254 OR PHENOBARBITOL, Method: STANDARD PLATE); “inactive; negative” (Test System: CHINESE HAMSTER OVARY, Strain/Indicator: CHO-K1-BH4 (HGPRT)/6-THIOGUANINE, Metabolic Activation: NONE, Method: SUSPENSION/PLATE); “inactive; negative” (Test System: CHINESE HAMSTER OVARY, Strain/Indicator: CHO-K1-BH4 (HGPRT)/6-THIOGUANINE, Metabolic Activation: S-9, Method: SUSPENSION/PLATE); “inactive; negative” (Test System: CHINESE HAMSTER OVARY, Strain/Indicator: CHO-K1-BH4 (HGPRT), Metabolic Activation: NONE, Method: SUSPENSION/PLATE); “inactive; negative” (Test System: CHINESE HAMSTER OVARY, Strain/Indicator: CHO-K1-BH4 (HGPRT), Metabolic Activation: RAT, LIVER, S-9, AROCLOR, Method: SUSPENSION/PLATE). Moreover, the mutagenic call by setting is: (Test System: CHINESE HAMSTER V-79, Strain/Indicator: V-79/6-THIOGUANINE, Metabolic Activation: NONE, Method: FLASK ASSAY) “inactive; negative”; (Test System: E. COLI, Strain/Indicator: WP2, Metabolic Activation: NONE, Method: PREINCUBATION) “inactive; negative”; (Test System: E. COLI, Strain/Indicator: WP2 UVRA, Metabolic Activation: NONE, Method: PREINCUBATION) “inactive; negative”; (Test System: MOUSE LYMPHOMA, Strain/Indicator: L5178Y (TK+/TK-), Metabolic Activation: RAT, LIVER, S-9, AROCLOR 1254, Method: SUSPENSION/PLATE) “active; positive. reevaluation of results: positive”; (Test System: MOUSE LYMPHOMA, Strain/Indicator: L5178Y (TK+/TK-), Metabolic Activation: S-9, Method: SUSPENSION/PLATE) “inactive; negative”.
In the case of `ONc1ncnc2nc[nH]c12`, the mutagenic call is, setting by setting: (Test System: AMES SALMONELLA TYPHIMURIUM, Strain/Indicator: HISG46, Metabolic Activation: NONE, Method: STANDARD PLATE) “active; positive”; (Test System: AMES SALMONELLA TYPHIMURIUM, Strain/Indicator: TA97, Metabolic Activation: NONE, Method: STANDARD PLATE) “active; positive”; (Test System: AMES SALMONELLA TYPHIMURIUM, Strain/Indicator: TA97, Metabolic Activation: RAT, LIVER, S-9, AROCLOR 1254, Method: STANDARD PLATE) “inactive; negative”; under setting [1], “inactive; negative”; (Test System: AMES SALMONELLA TYPHIMURIUM, Strain/Indicator: TA100(TN5-1,8-DNP1011), Metabolic Activation: NONE, Method: STANDARD PLATE) “active; positive”; (Test System: AMES SALMONELLA TYPHIMURIUM, Strain/Indicator: TA100(TN5-1,8-DNP1012), Metabolic Activation: NONE, Method: STANDARD PLATE) “active; positive”. Further, the mutagenic call is “inactive; negative” (Test System: AMES SALMONELLA TYPHIMURIUM, Strain/Indicator: TA100, Metabolic Activation: RAT, LIVER, S-9, AROCLOR 1254, Method: STANDARD PLATE); “active; positive” (Test System: AMES SALMONELLA TYPHIMURIUM, Strain/Indicator: TA1950, Metabolic Activation: NONE, Method: STANDARD PLATE); “active; positive” (Test System: E.COLI, Strain/Indicator: CM871, Metabolic Activation: NONE, Method: STANDARD PLATE); “active; positive” (Test System: E.COLI, Strain/Indicator: WP2, Metabolic Activation: NONE, Method: STANDARD PLATE).
For the molecule `CCc1cc(-c2ccccc2)cc(CC)c1N`, the mutagenic call under setting [1] was “inactive; negative”; the mutagenic call (Test System: AMES SALMONELLA TYPHIMURIUM, Strain/Indicator: TA98, Metabolic Activation: RAT LIVER S-9, AROCLOR, Method: STANDARD PLATE) was “inactive; negative”; the mutagenic call under setting [2] is “inactive; negative”; the mutagenic call (Test System: AMES SALMONELLA TYPHIMURIUM, Strain/Indicator: TA100, Metabolic Activation: RAT LIVER S-9, AROCLOR, Method: STANDARD PLATE) is “inactive; negative”.
